Assay results taken from patent US20260365696A1, “INHIBITORS OF PTP1B / NCK1 INTERACTION AND METHODS OF MAKING AND USING SAME” (Radella Pharmaceuticals LLC, priority 2023, published 2026).

molecular target: T1, SH3-2 domain of NCK1 (Homo sapiens, UniProt P16333); assay: Isothermal titration calorimetry (ITC) binding to NCK1 SH3-2 domain; conditions: substitutions at position 1 of MD18; ITC, 25 °C, pH 8.0
T1 construct: To amplify the NCK1 SH3-2 domain, the primers; 10xHis tag with TEV site (vector pSF-OXB20-NH2-10HIS) (N, cleaved yes); made in house; host or cells: E. coli C43(DE3)
Source text: Human PTP1B cDNA (NM_002827) and human NCK1 cDNA (NM 006153) were obtained (Origene, MD, USA). PTP1B Primers were designed to amplify the ORFs with added homology to the cut vector (EcoRI-digested pSF-OXB20-NH2-10HIS) in the forward primer sequence. To amplify full-length PTP1B, the primers ptp1b_FL_fwd ([…]) (SEQ ID NO: 159) and ptp1b_FL_rev ([…]) (SEQ ID NO: 160) were used. To amplify truncations of PTP1B, the following primer pairs were used: ptp1b_FL-Fwd and one of Ptplb_323stop_rev (gtgcaggaggagttcgaatt[…]) (SEQ ID NO: 161), ptp1b_344stop_rev ([…]) (SEQ ID NO: 162) or ptp1b_278stop_rev([…]) (SEQ ID NO: 163). To amplify the NCK1 SH3-2 domain, the primers ncklsh32_fwd ([…]) (SEQ ID NO: 164) and ncklsh32_rev ([…]) (SEQ ID NO: 165) were used. The amplified fragments were purified using a DNA clean-up kit according to manufacturer's instructions (QIAquick PCR purification kit, Qiagen).
To produce and purify fusion proteins, a culture was inoculated with 1% of overnight-cultured inoculum. Protein expression was carried out under the conditions described above, scaled up as necessary. Cells expressing the recombinant proteins were harvested in 50 mL tubes by centrifugation and stored at −80 °C. Cells containing the expressed gene product were thawed over ice and resuspended in Extraction buffer (10 mM Tris, pH 7.4 or 10 mM Sodium Phosphate, pH 8.0; 300 mM NaCl, 1 mM DTT or TCEP; 0-10% glycerol and 1 μg lysozyme) and sonicated over ice (4 °C) for 3 min total using pulses of 5 s with 15 s intervals, using a wide probe at 15 amplitude microns (Soniprep 150, MSE). Insoluble material was removed from the lysate by centrifugation at 20K rpm for 20-60 min at 4 °C. Supernatant was filtered through a 0.22 μm PVDF filter membrane and applied to 1-2 5 mL HisTrap FF Crude (Cytiva) prepacked Ni columns and connected to an AKTA explorer. After thorough washing with binding buffer (10 mM Tris, pH 7.4 or 10 mM Sodium Phosphate, pH 8.0; 300 mM NaCl; 1 mM DTT or TCEP and 25 mM Imidazole), protein was eluted using elution buffer (10 mM Tris, pH 7.4 or 10 mM Sodium Phosphate, pH 8.0; 150-300 mM NaCl; 1 mM DTT or TCEP and 250 mM Imidazole). Fractions containing protein of interest were confirmed by SDS PAGE. Protein was diluted with GF buffer (10 mM Tris, pH 7.4 or 10 mM Sodium Phosphate, pH 8.0; 150-300 mM NaCl) and subjected to TEV protease treatment overnight at 4-10 °C. Following proteolytic digestion, HIS-tag and TEV protease were removed by filtration through a clean 5 mL HisTrap FF Crude (Cytiva) prepacked Ni column. Protein was concentrated on a PES ultrafiltration device by centrifugation at 4000 rpm at 4 °C, and protein was polished via a HiPrep S-100 26/60 (Cytiva) using GF buffer (as described above). Purified proteins were concentrated using ultrafiltration, and protein concentration was determined using ultraviolet-visible spectroscopy. The integrity and identity of all proteins were verified by mass spectrographic analysis.
Isothermal titration calorimetry (ITC) was used to determine binding affinities for peptides against the SH3-2 domain of NCK1. Experiments were conducted at 25 °C using either a MicroCal iTC200 or MicroCal PEAQ-ITC calorimeter. The buffer used for all ITC experiments was 10 mM sodium [COMPOUND LEFT OUT] mM sodium chloride (pH=8.0). A series of peptides (concentration 3-7.5 mM) were titrated in to NCK1 SH3-2 domain (concentration 0.125-0.3 mM) using the following conditions: one injection of 0.2 μL followed by 19 injections of 2 μL, 120-150 seconds spacing between injections, at 25 °C. The data were fit using analysis software provided by the manufacturer and affinity values were calculated. The best fitting occurred when the number of sites was between 0.8 and 1.2. The experiments were repeated twice for a total of three times, and the average binding affinity for each peptide was generated. […]

Kd | Substance
≤ 300 µM | Ac-WPRPPKR-NH2 [MH117, Ac-WPRPPKR-NH2]
≤ 300 µM | Ac-DPRPPKR-NH2 [MH083, Ac-DPRPPKR-NH2]
≤ 300 µM | Ac-KPRPPKR-NH2 [MH103, Ac-KPRPPKR-NH2]

same assay, conditions: substitutions at position 3 of MD18; ITC, 25 °C, pH 8.0

Kd | Substance
≤ 300 µM | Ac-PPLPPKR-NH2 [MH100, Ac-PPLPPKR-NH2]
≤ 300 µM | Ac-PPNPPKR-NH2 [MH060, Ac-PPNPPKR-NH2]
≤ 300 µM | Ac-PPFPPKR-NH2 [MH066, Ac-PPFPPKR-NH2]
≤ 300 µM | Ac-PPMPPKR-NH2 [MH110, Ac-PPMPPKR-NH2]
≤ 300 µM | Ac-PPCPPKR-NH2 [MH061, Ac-PPCPPKR-NH2]
≤ 300 µM | Ac-PPKPPKR-NH2 [MH055, Ac-PPKPPKR-NH2]
≤ 300 µM | Ac-PPQPPKR-NH2 [MH087, Ac-PPQPPKR-NH2]
≤ 300 µM | Ac-PPVPPKR-NH2 [MH124, Ac-PPVPPKR-NH2]
≤ 300 µM | Ac-PPYPPKR-NH2 [MH120, Ac-PPYPPKR-NH2]

same assay, conditions: substitutions at position 4 of MD18 in a 7-mer; ITC, 25 °C, pH 8.0

Kd | Substance
> 1000 µM | Ac-PPRNPKR-NH2 [MH127, Ac-PPRNPKR-NH2]
> 1000 µM | Ac-PPRHPKR-NH2 [MH132, Ac-PPRHPKR-NH2]
> 1000 µM | Ac-PPRSPKR-NH2 [MH108, Ac-PPRSPKR-NH2]
≤ 300 µM | Ac-PPRIPKR-NH2 [MH097, Ac-PPRIPKR-NH2]
300 to 600 µM | Ac-PPRTPKR-NH2 [MH115, Ac-PPRTPKR-NH2]
> 1000 µM | Ac-PPRDPKR-NH2 [MH128, Ac-PPRDPKR-NH2]
> 1000 µM | Ac-PPREPKR-NH2 [MH130, Ac-PPREPKR-NH2]
300 to 600 µM | Ac-PPRLPKR-NH2 [MH101, Ac-PPRLPKR-NH2]
> 1000 µM | Ac-PPRWPKR-NH2 [MH118, Ac-PPRWPKR-NH2]
> 1000 µM | Ac-PPRCPKR-NH2 [MH129, Ac-PPRCPKR-NH2]

same assay, conditions: substitutions at position 6 of MD18; ITC, 25 °C, pH 8.0

Kd | Substance
≤ 300 µM | Ac-PPRPPHR-NH2 [MH049, Ac-PPRPPHR-NH2]
≤ 300 µM | Ac-PPRPPPR-NH2 [MH107, Ac-PPRPPPR-NH2]
≤ 300 µM | Ac-PPRPPER-NH2 [MH051, Ac-PPRPPER-NH2]
300 to 600 µM | Ac-PPRPPDR-NH2 [MH085, Ac-PPRPPDR-NH2]
≤ 300 µM | Ac-PPRPPWR-NH2 [MH050, Ac-PPRPPWR-NH2]
≤ 300 µM | Ac-PPRPPNR-NH2 [MH053, Ac-PPRPPNR-NH2]
≤ 300 µM | Ac-PPRPPQR-NH2 [MH088, Ac-PPRPPQR-NH2]
600 to 1000 µM | Ac-PPRPPGR-NH2 [MH094, Ac-PPRPPGR-NH2]
300 to 600 µM | Ac-PPRPPFR-NH2 [MH105, Ac-PPRPPFR-NH2]
≤ 300 µM | Ac-PPRPPYR-NH2 [MH122, Ac-PPRPPYR-NH2]
≤ 300 µM | Ac-PPRPPCR-NH2 [MH054, Ac-PPRPPCR-NH2]

same assay, conditions: substitutions at position 8 of the 8-mer MH063; ITC, 25 °C, pH 8.0; certain peptides tested one to three times

Kd | Substance
≤ 300 µM | Ac-PPRPPKRK-NH2 [MH148]
≤ 300 µM | Ac-PPRPPKRD-NH2 [MH141]
≤ 300 µM | Ac-PPRPPKRR-NH2 [MH139]
